Laboratory results reported in US8912218B2, “Alkylthiazol carbamate derivatives, preparation thereof and therapeutic use thereof” (Sanofi, priority 2008, dated 2014).

Columns and labels:
male OF 1 mice = assay: analgesia test: abdominal stretches induced by PBQ (phenylbenzoquinone); format: in vivo; details: 30 mg/kg p.o. at 120 minutes, PBQ 2 mg/kg i.p.
Description: The in vivo activity of the compounds of the invention was evaluated in an analgesia test.
Accordingly, intraperitoneal (i.p.) administration of PBQ (phenylbenzoquinone, 2 mg/kg in a 0.9% sodium chloride solution containing 5% of ethanol) to male OF 1 mice weighing 25 to 30 g causes abdominal stretches, on average 30 twists or contractions during the period from 5 to 15 minutes after injection. The test compounds are administered orally (p.o.) or intraperitoneally (i.p.) in suspension in Tween 80 at 0.5%, 60 minutes or 120 minutes before the administration of PBQ.
For example, compounds 28 and 30 of the table reduce by 33% and 80%, respectively, the number of stretches induced by PBQ, at a dose of 30 mg/kg p.o. at 120 minutes.

[1] = target: T1, FAAH (Fatty Acid Amide Hydrolase) (Mus musculus, UniProt O08914); assay: radioenzymatic assay of hydrolysis of anandamide [1-3H ethanolamine] by FAAH; format: biochemical; details: mouse brain membrane homogenates; pre-incubation 20 minutes at 25° C.; anandamide final concentration 10 μM; read-out: IC50 (concentration inhibiting by 50% the control enzymatic activity of FAAH)
T1 construct: Membrane homogenates are prepared at the time of use by homogenizing the tissues; from tissue; host or cells: mouse brain (minus the cerebellum), membrane homogenate
T1 sequence (O08914 1-579): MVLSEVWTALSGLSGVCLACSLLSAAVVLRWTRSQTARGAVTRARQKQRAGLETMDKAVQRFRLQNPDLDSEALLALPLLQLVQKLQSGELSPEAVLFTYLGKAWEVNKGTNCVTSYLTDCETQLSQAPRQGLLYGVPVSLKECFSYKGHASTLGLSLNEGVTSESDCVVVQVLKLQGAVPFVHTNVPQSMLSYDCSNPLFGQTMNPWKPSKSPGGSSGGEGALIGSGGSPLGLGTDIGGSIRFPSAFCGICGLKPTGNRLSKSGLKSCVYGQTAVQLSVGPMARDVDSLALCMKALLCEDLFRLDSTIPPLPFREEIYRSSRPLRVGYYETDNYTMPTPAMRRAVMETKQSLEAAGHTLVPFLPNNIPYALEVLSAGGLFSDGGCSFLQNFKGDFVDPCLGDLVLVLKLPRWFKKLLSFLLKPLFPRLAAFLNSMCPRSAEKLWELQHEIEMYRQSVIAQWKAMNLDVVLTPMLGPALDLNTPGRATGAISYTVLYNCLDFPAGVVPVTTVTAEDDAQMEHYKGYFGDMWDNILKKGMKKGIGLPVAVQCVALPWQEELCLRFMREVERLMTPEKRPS
Description: The compounds of the invention were subjected to pharmacological tests allowing determination of their inhibitory effect on the enzyme FAAH (Fatty Acid Amide Hydrolase).
Accordingly, mouse brains (minus the cerebellum) are removed and stored at −80° C. Membrane homogenates are prepared at the time of use by homogenizing the tissues using a Precellys® apparatus in the reaction buffer (10 mM Tris-HCl pH=8, 150 mM NaCl and 1 mM ethylenediaminetetraacetic acid (EDTA)). The enzymatic reaction is conducted in 96-well Multiscreen filter plates, in a final volume of 70 μl. Reaction buffer supplemented with bovine serum albumin without fatty acids (BSA, 1 mg/ml) is used for the enzymatic reaction, the dilution of the compounds and of anandamide [1-^3H ethanolamine]. Added in succession to the wells are the reaction buffer containing the BSA (43 μl/well), the diluted test compounds at different concentrations (7 μl/well containing 1% DMSO) and the membrane preparation (10 μl/well or […] per assay). After the compounds have been pre-incubated with the enzyme at 25° C. for 20 minutes, the reaction is initiated by the addition of anandamide [1-^3H ethanolamine] […] The mixture is stirred for 10 minutes and then the aqueous phase containing the ethanolamine [1-^3H] is recovered by filtration under vacuum and counted by liquid scintillation.

| SMILES | melting point [°C] | reduction of the number of stretches induced by PBQ (male OF 1 mice) [%] | IC50 [1] [nM] |
| --- | --- | --- | --- |
| CCOc1ccc(-c2ccc(N3CCC(CCNC(=O)OCc4nccs4)CC3)nc2)cc1 [Compound 38, Thiazol-2-ylmethyl 2-[5′-(4-ethoxyphenyl)-3,4,5,6-tetrahydro-2H-[1,2′]bipyridinyl-4-yl]ethylcarbamate] | 157 to 159 | – | – |
| O=C(NCCC1CCN(c2cccc(-c3ccc(F)cc3)n2)CC1)OC(c1nccs1)C(F)(F)F (racemic) [Compound 50, 2,2,2-Trifluoro-1-thiazol-2-ylethyl (+/−)-2-[6′-(4-fluorophenyl)-3,4,5,6-tetrahydro-2H-[1,2′]bipyridinyl-4-yl]ethylcarbamate] | 121 to 123 | – | – |
| O=C(NCCC1CCN(c2ccc(-c3ccc(F)cc3)cn2)CC1)OCc1nccs1 [Compound 28, Thiazol-2-ylmethyl 2-[5′-(4-fluorophenyl)-3,4,5,6-tetrahydro-2H-[1,2′]bipyridinyl-4-yl]-ethylcarbamate] | 131 to 133 | 33 | 3 |
| O=C(NCCC1CCN(c2ccc3cc(Cl)ccc3n2)CC1)OC(c1nccs1)C(F)(F)F (racemic) [Compound 106, 2,2,2-Trifluoro-1-thiazol-2-ylethyl (+/−)-2-[1-(6-chloroquinolin-2-yl)piperidin-4-yl]ethylcarbamate] | 114 to 116 | – | – |
| O=C(NCCC1CCN(c2ccc(-c3ccc(F)cc3)cn2)CC1)OCc1cncs1 [Compound 33, Thiazol-5-ylmethyl 2-[5′-(4-fluorophenyl)-3,4,5,6-tetrahydro-2H-[1,2′]bipyridinyl-4-yl]ethylcarbamate] | 100 to 102 | – | – |
| O=C(NCCC1CCN(c2ccc3cc(F)ccc3n2)CC1)OCc1cncs1 [Compound 117, Thiazol-5-ylmethyl 2-[1-(6-fluoroquinolin-2-yl)piperidin-4-yl]ethylcarbamate] | 100 to 102 | – | – |
| O=C(NCCC1CCN(c2ccc(-c3ccc(F)cc3)cn2)CC1)OCc1cscn1 [Compound 30, Thiazol-4-ylmethyl 2-[5′-(4-fluorophenyl)-3,4,5,6-tetrahydro-2H-[1,2′]bipyridinyl-4-yl]ethylcarbamate] | 130 to 132 | 80 | 7 |
